Assay results published in article PMC7216583 (Parasites & Vectors, 2020).
Structures can show the parent of a compound that is named as a salt.

Each molecule was assayed on Toxoplasma gondii RH-2F tachyzoites (assay: microbe, parasite or virus in culture). Details: 72 h, read-out: Parasite inhibition (%) mean.
For `CC(C)NCC(O)COc1ccc(CCOCC2CC2)cc1` (centres unmarked) [Betaxolol (Betoptic)], the inhibition of growth at 5 µM was 9.5%. `Nc1ncnc2nc[nH]c12` [Adenine sulfate] was tested, and the inhibition of growth at 5 µM was 11.8%.

Same assay, conditions: 72 h, read-out: Parasite inhibition (%) mean, preliminary screen of compound library, mean
With `Cc1c(Cn2c(C)nc3c(C(=O)O)cc(N4CCOCC4)cc32)cccc1C(F)(F)F` [GSK2636771] the inhibition of growth at 5 µM was 1.7%. `CCOC(=O)c1c(CSc2ccccc2)n(C)c2cc(Br)c(O)c(CN(C)C)c12` [Arbidol HCl] showed an inhibition of growth at 5 µM of 2.8%. With `C[C@H]1CCN(C(=O)CC#N)C[C@@H]1N(C)c1ncnc2[nH]ccc12` [Tofacitinib (CP-690550, Tasocitinib)] the inhibition of growth at 5 µM was 11.2%. With `COc1cc(/C=C/C(=O)N2CCN(CC(=O)N3CCCC3)CC2)cc(OC)c1OC` [Cinepazide maleate] the inhibition of growth at 5 µM was 1.5%. `Cc1cc(C)c(/C=C2\C(=O)Nc3ccccc32)[nH]1` [Semaxanib (SU5416)] was tested, and the inhibition of growth at 5 µM was -78.8%. In the case of `CN1CCN(c2c(F)cc3c(=O)c(C(=O)O)cn4c3c2OCN4C)CC1` [Marbofloxacin], the inhibition of growth at 5 µM is reported as 8.7%. With `C[C@H]1CCO[C@H]2Cn3cc(C(=O)NCc4ccc(F)cc4F)c(=O)c(O)c3C(=O)N21` [S/GSK1349572 (GSK1349572)] the inhibition of growth at 5 µM was 0.2%. With `COc1cc2ncnc(-n3nc(-c4ccccn4)nc3N)c2cc1OC` [CP-466722] the inhibition of growth at 5 µM was 2.5%. With `CC(C)[C@H](N)C(=O)OCCOCn1cnc2c(=O)[nH]c(N)nc21` [Valaciclovir HCl] the inhibition of growth at 5 µM was 0.1%. `Cc1cn([C@@H]2C[C@@H](O)[C@H](CO)O2)c(=O)[nH]c1=O` [Telbivudine (Sebivo, Tyzeka)] was tested, and the inhibition of growth at 5 µM was 12.9%. With `Nc1ccc(-c2ccc3ncc4ccc(=O)n(-c5cccc(C(F)(F)F)c5)c4c3c2)cn1` [Torin 2] the inhibition of growth at 5 µM was 25.1%. Work on `CC(=O)NS(=O)(=O)c1ccc(N)cc1` [Sulfacetamide Sodium] yielded an inhibition of growth at 5 µM of 0.9%. In the case of `CO/N=C(\C(=O)N[C@@H]1C(=O)N2C(C(=O)O)=C(Cn3ccc(=N)n3CCO)CS[C@H]12)c1csc(N)n1` [Cefoselis sulfate], the inhibition of growth at 5 µM is reported as 12.1%. `C[C@H]1CNCCc2ccc(Cl)cc21` [Lorcaserin HCl] gave an inhibition of growth at 5 µM of 34.8%. In the case of `C=CC(=O)Nc1ccc2ncnc(Nc3cccc(Br)c3)c2c1` [PD168393], the inhibition of growth at 5 µM is reported as -0.1%. For `CC(C(=O)O)c1ccc2c(c1)CC(=O)c1ccccc1S2` (centres unmarked) [Zaltoprofen], the inhibition of growth at 5 µM was 3.3%. In the case of `CN[C@@H]1C[C@@H](N)[C@H](O)[C@@H](O[C@@H]2O[C@H](CO)[C@H](O)[C@@H]3OC4(O[C@@H]23)O[C@H]([C@@H](N)CO)[C@H](O)[C@H](O)[C@@H]4O)[C@@H]1O` (some centres unmarked) [Hygromycin B], the inhibition of growth at 5 µM is reported as 40.4%. `CC1(C)[C@@H](O[C@H]2O[C@H](C(=O)O)[C@@H](O)[C@H](O)[C@@H]2O[C@@H]2O[C@H](C(=O)O)[C@@H](O)[C@H](O)[C@H]2O)CC[C@@]2(C)[C@H]3C(=O)C=C4[C@@H]5C[C@@](C)(C(=O)O)CC[C@]5(C)CC[C@@]4(C)[C@]3(C)CC[C@@H]12` [Ammonium Glycyrrhizinate (AMGZ)] was tested, and the inhibition of growth at 5 µM was 0.1%. For `C[C@@H](C(=O)O)c1ccc(-c2ccccc2)c(F)c1` [Flurbiprofen (Ansaid)], the inhibition of growth at 5 µM was -23.7%. `Cc1cnc(NC(=O)Nc2cc(Br)c(C)cc2OC[C@@H]2CNCCO2)cn1` [LY2603618 (IC-83)] showed an inhibition of growth at 5 µM of 22.7%. Molecule `CN(Cc1ccc(C(C)(C)C)cc1)Cc1cccc2ccccc12` [Butenafine HCl] has an inhibition of growth at 5 µM of 7.5%. With `O=C(CCCCCCNC(=O)c1cnc(N(c2ccccc2)c2ccccc2)nc1)NO` [Rocilinostat (ACY-1215)] the inhibition of growth at 5 µM was 2.9%. Work on `O=C(Nc1ccc(S(=O)(=O)Nc2ccccc2Cl)c(Cl)c1)c1ccccn1` [VU 0364439] yielded an inhibition of growth at 5 µM of -0.9%. In the case of `CCCNC(C)C(=O)Nc1ccccc1C` (centres unmarked) [Prilocaine], the inhibition of growth at 5 µM is reported as -21.8%. In the case of `CCCCOc1cc(C(=O)NCCN(CC)CC)c2ccccc2n1` [Dibucaine (Cinchocaine) HCl], the inhibition of growth at 5 µM is reported as 8.9%. In the case of `OC[C@@H](O)[C@@H](O)[C@H](O)[C@@H](O)CO` [Sorbitol (Glucitol)], the inhibition of growth at 5 µM is reported as -66.9%. Work on `O=C(O)CCCCC(CCSCc1ccccc1)SCc1ccccc1` (centres unmarked) [CPI-613] yielded an inhibition of growth at 5 µM of 31.1%. `CC(C)c1nc(CN(C)C(=O)N[C@@H](CCN2CCOCC2)C(=O)N[C@H](CC[C@H](Cc2ccccc2)NC(=O)OCc2cncs2)Cc2ccccc2)cs1` [Cobicistat (GS-9350)] showed an inhibition of growth at 5 µM of 0.8%. `COc1cc(OC)c(OC)cc1C=O` [Asaraldehyde (Asaronaldehyde)] was tested, and the inhibition of growth at 5 µM was 10.2%. `CN1CCc2c(c3ccccc3n2Cc2ccc(C(=O)NO)cc2)C1` [Tubastatin A HCl] showed an inhibition of growth at 5 µM of 2.3%. `CC1(C)S[C@@H]2[C@H](NC(=O)[C@H](N)c3ccc(O)cc3)C(=O)N2[C@@H]1C(=O)O` [Amoxicillin sodium (Amox)] showed an inhibition of growth at 5 µM of 9.1%. `CNCC(=O)c1ccc(O)c(O)c1` [Adrenalone HCl] showed an inhibition of growth at 5 µM of 17.8%. Work on `C=C1/C(=C/C=C2\CCC[C@@]3(C)[C@H]2CC[C@H]3[C@H](C)/C=C/[C@@H](C)C(C)C)C[C@H](O)C[C@@H]1O` [Doxercalciferol (Hectorol)] yielded an inhibition of growth at 5 µM of 0.1%. In the case of `CC(C(=O)[O][Ca][O]C(=O)C(C)c1cccc(Oc2ccccc2)c1)c1cccc(Oc2ccccc2)c1` (centres unmarked) [Fenoprofen calcium], the inhibition of growth at 5 µM is reported as 27.4%. For `CCC(=O)N1CCN(c2ccc(-n3c(=O)ccc4cnc5ccc(-c6cnc7ccccc7c6)cc5c43)cc2C(F)(F)F)CC1` [Torin 1], the inhibition of growth at 5 µM was 17.8%. Molecule `N[C@H](C(=O)O)[C@H](O)c1ccc(O)c(O)c1` [Droxidopa (L-DOPS)] has an inhibition of growth at 5 µM of 39.8%. `CN1CCN(C(=O)c2cc3cc(Cl)ccc3[nH]2)CC1` [JNJ-7777120] was tested, and the inhibition of growth at 5 µM was 67.4%.

Same assay, conditions: 72 h, read-out: Parasite inhibition (%) mean, preliminary screen, mean
For `O=S(=O)(O)CCSSCCS(=O)(=O)O` [Dimesna], the inhibition of growth at 5 µM was -0.8%. Work on `CN(C(=O)c1ccc(F)cc1C(F)(F)F)C1CCN(c2nnc(-c3ccnn3C)c3ccccc23)CC1` [LY2940680] yielded an inhibition of growth at 5 µM of 2.1%. `Cn1cc(-c2ccc3nnc(Sc4ccc5ncccc5c4)n3n2)cn1` [SGX-523] gave an inhibition of growth at 5 µM of 45.5%. `c1ccc2c(CCNc3ccc(Nc4ccncc4)cc3)c[nH]c2c1` [JNJ 26854165 (Serdemetan)] showed an inhibition of growth at 5 µM of 48.9%. Molecule `CCOC(=O)[C@H](CCc1ccccc1)N[C@H]1CS[C@H](c2cccs2)CN(CC(=O)O)C1=O` [Temocapril HCl] has an inhibition of growth at 5 µM of 31.7%. With `C[C@@H](N)[C@H]1CC[C@H](C(=O)Nc2ccncc2)CC1` [Y-27632 2HCl] the inhibition of growth at 5 µM was -4.8%. For `CN(C)C(=O)Oc1ccc[n+](C)c1` [Pyridostigmine Bromide (Mestinon)], the inhibition of growth at 5 µM was -6.5%. Work on `O=C(NOC[C@H](O)CO)c1ccc(F)c(F)c1Nc1ccc(I)cc1F` [PD0325901] yielded an inhibition of growth at 5 µM of -6.9%. `NC(=O)c1cn(Cc2c(F)cccc2F)nn1` [Rufinamide (Banzel)] showed an inhibition of growth at 5 µM of 1.7%. With `COc1ccc(-n2nc(C(N)=O)c3c2C(=O)N(c2ccc(N4CCCCC4=O)cc2)CC3)cc1` [Apixaban] the inhibition of growth at 5 µM was 2%. Molecule `C[C@]12CCC3=C4CCC(=O)C=C4CC[C@H]3[C@@H]1CC[C@@]2(O)CC#N` [Dienogest] has an inhibition of growth at 5 µM of 12%. `NC1=N[C@@]2(c3cc(NC(=O)c4ccc(F)cn4)ccc3F)COC[C@H]2CS1` [LY2886721] was tested, and the inhibition of growth at 5 µM was 35.7%. `CC(C)c1cc(C(C)C)c(CC(=O)NS(=O)(=O)Oc2c(C(C)C)cccc2C(C)C)c(C(C)C)c1` [Avasimibe (CI-1011)] was tested, and the inhibition of growth at 5 µM was 5.1%. `COc1cc(Nc2ncc3c(n2)-c2ccc(Cl)cc2C(c2c(F)cccc2OC)=NC3)ccc1C(=O)O` [MLN8237 (Alisertib)] showed an inhibition of growth at 5 µM of 58.9%.
